Columns and labels:
[1] = biological target: T1, HIV-1 capsid protein (Human immunodeficiency virus type 1 group M subtype B, UniProt P12493); assay: In vitro polymerization of HIV-1 capsid protein (His-CA/GST-CA, Eu cryptate/XL665 energy transfer); format: biochemical, HIV-1 NL4-3; conditions: for Imax: 37° C., 2 h incubation
T1 construct: made in house; host or cells: E. coli (pET30 vector)
Text: • 1. MAb Anti GST-Eu cryptate (Cisbio) • 2. MAb Anti 6HIS-XL665 (Cisbio) • 3. His tag HIV-1 capsid protein (hereinafter referred to as His-CA) • 4. GST tag HIV-1 capsid protein (hereinafter referred to as GST-CA) • 5. 384-well unbound surface microplate, white (Corning) • 6. Microplate reader (BMG)
The HIV-1 capsid proteins aggregate spontaneously in high-salt solutions. Capsid protein sequences derived from HIV-1 NL4-3 strains (GeneBank AF324493.2) were separately tagged with 6His tag and GST tag sequences at the C-terminus, cloned into pET30 vectors, and expressed and separately tagged for expression in E. coli system and purified. His-CA and GST-CA were mixed at high-salt concentrations, and the level of polymerization of capsid proteins was detected using GST antibody labeled with Eu3+-Cryptate (energy donor) and His antibody labeled with XL665 (energy acceptor). Since the excitation spectrum of Eu3+-Cryptate overlapped with the excitation spectrum of XL665, when the capsid proteins with these two tags formed a poly complex, the energy donor and the energy acceptor could be drawn to a sufficiently close distance, the energy donor released part of the captured energy under the excitation of an external light source (such as a xenon lamp or a laser), with the emission wavelength being 620 nM, part of the resonance was transferred to the energy acceptor to excite the energy acceptor, with the emission wavelength being 665 nM, and an optical signal was generated, the signal intensity of which was in direct proportion to the degree of polymerization of the tag proteins.
His-CA was diluted to 2 μM in a clean tube with protein diluent (50 mM Tris-HCl, pH 8.0, 50 mM NaCl, 0.4 mM MgCl2, 0.05% Triton X-100, 2% glycerol) while MAb Anti 6HIS-XL665 at a final concentration of 260 nM was added; GST-CA was diluted to 20 nM with protein diluent in another clean tube while MAb Anti GST-Eu cryptate at a final concentration of 3.33 nM was added and incubated on ice for half an hour. Compounds were first formulated into a concentration of 20 mM with DMSO, then diluted to a first concentration of 2 mM with DMSO and serially 5-fold diluted to the 8th concentration. Control wells were set and added with DMSO, and serially-diluted compounds were then 20-fold diluted with protein diluent to 10-fold working concentrations. Preparation of capsid protein polymerization liquid at 2-fold concentration: 50 mM Tris-HCl, pH 8.0, 1 M NaCl, 800 mM KF; to a pre-cooled white round-bottomed 384-well plate were added 4 uL of His-CA-His antibody mixture, 4 uL of GST-CA-GST antibody mixture, 2 uL of the compounds at 10-fold concentration and 10 uL of capsid protein polymerization reaction liquid at 2-fold concentration, the plate was sealed with a light-shielding sealing plate membrane after uniformly mixing, and the reaction plate was placed in a 37° C. incubator for incubation for 2 h. After incubation, the samples were excited with an excitation light at 337 nM, and signal values at 620 nM and 665 nM were collected for detection, wherein Ratio values=(665 nM/620 nM signal)×10000 was calculated according to the signal values. IC50 values for compounds were calculated using Graphpad Prism software based on each concentration of the compounds and the corresponding Ratio values.

[2] = Thermodynamic stability test of atropisomerism (LC-MS); format: physicochemical
Protocol: Agilent 1200 DAD model LC-MS; column: waters sunfire C18, 4.6×75 mm, 3.5 μm; mobile phase: water (0.1% trifluoroacetic acid):acetonitrile (0.1% trifluoroacetic acid).
The compounds of Examples 1-1a, 1-1b were atropisomers of each other and had different retention times in the LC-MS spectra, and the tautomerism of the atropisomers could be detected by LC-MS.
Compound 1-1a (1.5 mg) was dissolved in acetonitrile (1.0 mL), and the reaction solution was heated at 40° C. for 1.0 h, and the change in purity of compound 1-1a was detected by LC-MS. Compound 1-1a (1.5 mg) was dissolved in dimethyl sulfoxide (1.0 mL), and the reaction solution was heated at 120° C. for 3.0 h, and the change in purity of compound 1-1a was detected by LC-MS.
The same procedure was used to test the change in purity of compound 1-1b at 40° C. and 120° C.
The compounds of Examples 5-1, 5-2 were atropisomers of each other and had different retention times in the LC-MS spectra, and the tautomerism of the atropisomers could be detected by LC-MS.
Compound 5-1 (1.0 mg) was dissolved in DMSO (1.0 mL), and the reaction solution was heated at 37° C. and 120° C. for 3.0 h, respectively, and the change in purity of compound 5-1 was detected by LC-MS.

Row | SMILES | IC50 [1] | Imax [1] | atropisomer stability (change in purity by LC-MS) ([2]; heated at 37° C. for 3.0 h in DMSO) | atropisomer stability (change in purity by LC-MS) ([2]; heated at 120° C. for 3.0 h in dimethyl sulfoxide)
1 | CC(C)(C#Cc1nc([C@H](Cc2cc(F)cc(F)c2)NC(=O)Cn2nc(C(F)(F)F)c3c2C(F)(F)[C@@H]2C[C@H]32)c(-c2ccc(Cl)c3c(NS(C)(=O)=O)nn(CC(F)(F)F)c23)c2c1CCC2)S(=O)(=O)C1CC1 (atropisomer, axis not shown; (aR)) [Example 3, N—((S)-1-((R)-4-(4-chloro-3-(methanesulfonamido)-1-(2,2,2-trifluoroethyl)-1H-indazol-7-yl)-1-(3-(cyclopropylsulfonyl)-3-methyl-but-1-yn-1-yl)-6,7-dihydro-5H-cyclopenta[c]pyridin-3-yl)-2-(3,5-difluorophenyl)ethyl)-2-((3bS,4aR)-5,5-difluoro-3-(trifluoromethyl)-3b,4,4a,5-tetrahydro-1H-cyclopropa[3,4]cyclopenta[1,2-c]pyrazol-1-yl)acetamide] | 24 nM | 98% |  | 
2 | CC(C)(C#Cc1nc([C@H](Cc2cc(F)cc(F)c2)NC(=O)Cn2nc(C(F)(F)F)c3c2C(F)(F)[C@@H]2C[C@H]32)c(-c2ccc(Cl)c3c(NS(=O)(=O)C4CC4)nn(CC(F)(F)F)c23)c2c1CCC2)S(C)(=O)=O (atropisomer, axis not shown; (aR)) [Example 2, N—((S)-1-((R)-4-(4-chloro-3-(cyclopropylsulfonamide)-1-(2,2,2-trifluoroethyl)-1H-indazol-7-yl)-1-(3-methyl-3-(methylsulfonyl)but-1-yn-1-yl)-6,7-dihydro-5H-cyclopenta[c]pyridin-3-yl)-2-(3,5-difluorophenyl)ethyl)-2-((3bS,4aR)-5,5-difluoro-3-(trifluoromethyl)-3 b,4,4a,5-tetrahydro-1H-cyclopropa[3,4]cyclopenta[1,2-c]pyrazol-1-yl)acetamide] | 19 nM | 100% |  | 
3 | CC(C)(C#Cc1nc([C@H](Cc2cc(F)cc(F)c2)NC(=O)Cn2nc(C(F)(F)F)c3c2C(F)(F)[C@@H]2C[C@H]32)c(-c2ccc(Cl)c3c(NS(C)(=O)=O)nn(CC(F)(F)F)c23)c2c1CCCC2)S(C)(=O)=O (single isomer, unassigned) [Example 5-1] | 37 nM | 108% | stable single-configuration compound | stable single-configuration compound
4 | CC(C)(C#Cc1nc([C@H](Cc2cc(F)cc(F)c2)NC(=O)Cn2nc(C(F)(F)F)c3c2C(F)(F)[C@@H]2C[C@H]32)c(-c2ccc(Cl)c3c(NS(C)(=O)=O)nn(CC(F)(F)F)c23)c2ccccc12)S(C)(=O)=O (atropisomer, axis not shown; (aR)) [Example 6, N—((S)-1-((R)-4-(4-chloro-3-(methanesulfonamido)-1-(2,2,2-trifluoroethyl)-1H-indazol-7-yl)-1-(3-methyl-3-(methanesulfonyl)but-1-yn-1-yl)isoquinolin-3-yl)-2-(3,5-difluorophenyl)ethyl)-2-((3bS,4aR)-5,5-difluoro-3-(trifluoromethyl)-3b,4,4a,5-tetrahydro-1H-cyclopropa[3,4]cyclopenta[1,2-c]pyrazol-1-yl)acetamide] | 107 nM | 75% |  | 
5 | CC(C)(C#Cc1nc([C@H](Cc2cc(F)cc(F)c2)NC(=O)Cn2nc(C(F)(F)F)c3c2C(F)(F)[C@@H]2C[C@H]32)c(-c2ccc(Cl)c3c(NS(=O)(=O)C4CC4)nn(CC(F)(F)F)c23)c2c1CCC2)S(=O)(=O)C1CC1 (atropisomer, axis not shown; (aR)) [Example 4, N—((S)-1-((R)-4-(4-chloro-3-(cyclopropylsulfonamide)-1-(2,2,2-trifluoroethyl)-1H-indazol-7-yl)-1-(3-(cyclopropylsulfonyl)-3-methyl-but-1-yn-1-yl)-6,7-dihydro-5H-cyclopenta [c]pyridin-3-yl)-2-(3,5-difluorophenyl)ethyl)-2-((3bS,4aR)-5,5-difluoro-3-(trifluoromethyl)-3b,4,4a,5-tetrahydro-1H-cyclopropa[3,4]cyclopenta[1,2-c]pyrazol-1-1)acetamide] | 68 nM | 91% |  | 

Source: patent publication US12428396B2, “Fused pyridine ring derivative, preparation method therefor, and pharmaceutical use thereof” (priority 2019, dated 2025)
